Assay results published in US20080044844A1 (priority 2004, published 2008).
Read-outs that look alike come from different tables or passages of the source.

Experiments:
GrpE promoter [1] = format: cell-based, E. coli
Fiu promoter [2] = format: cell-based, E. coli
[3] = tested on: E. coli luxCDABE promoter fusion library; format: cell-based
[4] = rat, in vivo, po; cited from earlier work
yciD promoter = format: cell-based, E. coli
otsAB promoter = format: cell-based, E. coli
lacZ promoter = format: cell-based, E. coli
MipA promoter [5] = format: cell-based, E. coli
Fiu promoter [6] = format: cell-based, E. coli; remark: listed apart in the source
GrpE promoter [7] = format: cell-based, E. coli; remark: listed apart in the source
LacAYZ promoter = format: cell-based, E. coli
nhoA promoter = format: cell-based, E. coli
STRE = format: cell-based, Saccharomyces cerevisiae
MipA promoter [8] = format: cell-based, E. coli; remark: listed apart in the source
(AP-1-STRE)*2 = format: cell-based, Saccharomyces cerevisiae

Molecule | Cmax (GrpE promoter [1]) [mg/L] | EC200 (GrpE promoter [1]) [mg/L] | t200 (GrpE promoter [1]) [min] | tmax (first value, time to reach RRmax) (GrpE promoter [1]) | tmax (second value, time to reach ΔLmax) (GrpE promoter [1]) | Cmax (Fiu promoter [2]) [mg/L] | EC200 (Fiu promoter [2]) [mg/L] | RRmax (Fiu promoter [2]) | t200 (Fiu promoter [2]) [min] | tmax (first value, time to reach RRmax) (Fiu promoter [2]) | tmax (second value, time to reach ΔLmax) (Fiu promoter [2]) | ΔLmax (Fiu promoter [2]) | share of library promoters with 0 < RRmax < 2 [3] [%] | Cmax (lacZ promoter) [mg/L] | EC200 (lacZ promoter) [mg/L] | RRmax (lacZ promoter) | t200 (lacZ promoter) [min] | tmax (first value, time to reach RRmax) (lacZ promoter) | tmax (second value, time to reach ΔLmax) (lacZ promoter) | ΔLmax (lacZ promoter) | other results
Oc1ccccc1Cl [2-Chlorophenol] | 250 | 2.8 | 32 | 90/90 min | 90/90 min | 500 | 3.4 | 5.8 | 80 | 90/120 min | 90/120 min | 11,971 RLU |  |  |  |  |  |  |  |  | RRmax (GrpE promoter [1]): 18.7; ΔLmax (GrpE promoter [1]): 33,345 RLU
COc1cc2c(c(OC)c1OC)-c1ccc(OC)c(=O)cc1[C@@H](NC(C)=O)CC2 [Colchicine] |  |  |  |  |  | 45 | 14.3 | 4.0 | 85 | 120/120 min | 120/120 min | 1,924 RLU |  |  |  |  |  |  |  |  | 
CNC(=O)ON=C(C)SC [Methomyl] |  |  |  |  |  |  |  |  |  |  |  |  | 90.1 |  |  |  |  |  |  |  | response of the library promoters to the toxicant (in words) [3]: very poor responses; share of library promoters with 2 < RRmax < 3 [3]: 7.1%; share of library promoters with 3 < RRmax < 5 [3]: 2.0%; share of library promoters with 5 < RRmax < 10 [3]: 0.7%; share of library promoters with 10 < RRmax [3]: 0.1%; LD50 [4]: 17 mg/kg; Cmax (yciD promoter): 2000 mg/L; RRmax (yciD promoter): 2; Cmax (otsAB promoter): 2000 mg/L; RRmax (otsAB promoter): 3
CNC(=S)[S-].[Na+] [Metham Sodium] |  |  |  |  |  |  |  |  |  |  |  |  |  | 180 | 20.0 | 6.5 | 90 | 120/120 min | 120/120 min | 30,468 RLU | Cmax (MipA promoter [5]): 180 mg/L; EC200 (MipA promoter [5]): 18.0 mg/L; RRmax (MipA promoter [5]): 5.9; t200 (MipA promoter [5]): 100 min; tmax (first value, time to reach RRmax) (MipA promoter [5]): 120/120 min; tmax (second value, time to reach ΔLmax) (MipA promoter [5]): 120/120 min; ΔLmax (MipA promoter [5]): 27,745 RLU
Oc1cc(Cl)c(Cl)cc1Cl [2,4,5-Trichlorophenol] | 31 | 1.0 | 21 | 90/90 min | 90/90 min | 31 | 1.2 | 11.7 | 39 | 30/120 min | 30/120 min | 33,697 RLU |  | 31 | 0.8 | 16.1 | 95 | 120/120 min | 120/120 min | 74,832 RLU | RRmax (GrpE promoter [1]): 22.1; ΔLmax (GrpE promoter [1]): 54,432 RLU
COC(=O)C=C(C)OP(=O)(OC)OC [Phosdrin] |  |  |  |  |  |  |  |  |  |  |  |  |  | 180 | 38.3 | 3.7 | 110 | 120/120 min | 120/120 min | 12,900 RLU | 
Oc1c(Cl)cccc1Cl [2,6-Dichlorophenol] | 31 | 1.2 | 29 | 90/90 min | 90/90 min | 125 | 16.0 | 4.4 | 31 | 30/120 min | 30/120 min | 25,553 RLU |  |  |  |  |  |  |  |  | RRmax (GrpE promoter [1]): 19.5; ΔLmax (GrpE promoter [1]): 47,877 RLU
COP(=O)(OC)OC=C(Cl)Cl [DDVP, Dichlorvos] | 125 | 32.5 | 41 | 132/132 min | 132/132 min |  |  |  |  |  |  |  | 91.7 |  |  |  |  |  |  |  | Cmax (Fiu promoter [6]): 500 mg/L; RRmax (Fiu promoter [6]): 5; ΔLmax (GrpE promoter [1]): 5,290 RLU; Cmax (GrpE promoter [7]): 125 mg/L; share of library promoters with 2 < RRmax < 3 [3]: 5.7%; share of library promoters with 3 < RRmax < 5 [3]: 2.0%; share of library promoters with 5 < RRmax < 10 [3]: 0.4%
C[n+]1ccc(-c2cc[n+](C)cc2)cc1 [Paraquat] |  |  |  |  |  | 250 | 9.8 | 16.9 | 42 | 120/60 min | 120/60 min | 29,591 RLU | 71.1 | 32.5 | 9.0 | 13.0 | 85 | 123/132 min | 123/132 min | 253,421 RLU | response of the library promoters to the toxicant (in words) [3]: strongest inducer; share of library promoters with 2 < RRmax < 3 [3]: 13.7%; share of library promoters with 3 < RRmax < 5 [3]: 7.5%; share of library promoters with 5 < RRmax < 10 [3]: 3.7%; share of library promoters with 10 < RRmax [3]: 4%; LD50 [4]: 150 mg/kg; Cmax (LacAYZ promoter): 500 mg/L; RRmax (LacAYZ promoter): 28; EC200 (nhoA promoter): 0.43 mg/L; t200 (nhoA promoter): 21 min; tmax (first value, time to reach RRmax) (nhoA promoter): 96/110 min; tmax (second value, time to reach ΔLmax) (nhoA promoter): 96/110 min; ΔLmax (nhoA promoter): 146,342 RLU
Botulinum Toxin A |  |  |  |  |  |  |  |  |  |  |  |  | 100 |  |  |  |  |  |  |  | response of the library promoters to the toxicant (in words) [3]: did not produce any response
CCOP(=S)(OCC)Oc1ccc([N+](=O)[O-])cc1 [Ethyl Parathion] |  |  |  |  |  |  |  |  |  |  |  |  | 89.6 | 125 | 13.0 | 4.7 | 120 | 132/132 min | 132/132 min | 47,776 RLU | fold higher response (STRE): 4-5 fold; time within which a response can be seen (STRE): 5 to 10 min; share of library promoters with 2 < RRmax < 3 [3]: 6.3%; share of library promoters with 3 < RRmax < 5 [3]: 2.1%; share of library promoters with 5 < RRmax < 10 [3]: 1.7%; Cmax (MipA promoter [8]): 500 mg/L; LD50 [4]: 2 mg/kg; Cmax (MipA promoter [5]): 500 mg/L; EC200 (MipA promoter [5]): 79.0 mg/L; t200 (MipA promoter [5]): 60 min; tmax (first value, time to reach RRmax) (MipA promoter [5]): 87/110 min; tmax (second value, time to reach ΔLmax) (MipA promoter [5]): 87/110 min; ΔLmax (MipA promoter [5]): 196,600 RLU; Cmax (LacAYZ promoter): 500 mg/L; RRmax (LacAYZ promoter): 8; fold higher response ((AP-1-STRE)*2): 4-5 fold; time within which a response can be seen ((AP-1-STRE)*2): 5 to 10 min
